Tested on: Corn
Test: Greenhouse test, combination of Procedures II and III: insecticide in-furrow or in cover layer, herbicide and antidote incorporated in cover layer (Examples 1-3, 6; Tables 1-3, 6)
Format: in vivo
Conditions: for Percent Injury Corn: 7 weeks; for % Injury Corn / % Corn Injury PN 3320 / % Corn Injury PN 3377: 3 weeks; for corn injury safened: 0.14 kg/ha herbicide plus Insecticide No. 1, Antidote No. 1 0.42 kg/ha
[1] = Ex. 6: Antidote 1 0.14 + Herbicide 1 0.14 Kg/Ha
[2] = Ex. 6: Antidote 1 0.42 + Herbicide 1 0.14 Kg/Ha
[3] = Ex. 6: Antidote 1 0.56 + Herbicide 1 0.56 Kg/Ha
[4] = Ex. 6: Antidote 1 1.68 + Herbicide 1 0.56 Kg/Ha
[5] = Ex. 6: Insecticide 1 0.23 Kg/305m + Antidote 1 0.14 + Herbicide 1 0.14 Kg/Ha
[6] = Ex. 6: Insecticide 1 0.23 Kg/305m + Antidote 1 0.42 + Herbicide 1 0.14 Kg/Ha
[7] = Ex. 6: Insecticide 1 0.23 Kg/305m + Antidote 1 0.56 + Herbicide 1 0.56 Kg/Ha
[8] = Ex. 6: Insecticide 1 0.23 Kg/305m + Antidote 1 1.68 + Herbicide 1 0.56 Kg/Ha
[9] = Ex. 6: Insecticide 2 0.23 Kg/305m + Antidote 1 0.14 + Herbicide 1 0.14 Kg/Ha
[10] = Ex. 6: Insecticide 2 0.23 Kg/305m + Antidote 1 0.42 + Herbicide 1 0.14 Kg/Ha
[11] = Ex. 6: Insecticide 2 0.23 Kg/305m + Antidote 1 0.56 + Herbicide 1 0.56 Kg/Ha
[12] = Ex. 6: Insecticide 2 0.23 Kg/305m + Antidote 1 1.68 + Herbicide 1 0.56 Kg/Ha

In the case of `CC1(C)OC(c2ccco2)CN1C(=O)C(Cl)Cl` (centres unmarked) [Antidote No. 1, Oxazolidine, 3-(dichloroacetyl)-2,2-dimethyl-5-(2-furanyl)-], the “Percent Injury Corn” value (Antidote 1 0.14 + Herbicide 1 0.14 Kg/Ha) is reported as 2%, the “Percent Injury Corn” value (Antidote 1 0.56 + Herbicide 1 0.56 Kg/Ha) is reported as 5% and the “Percent Injury Corn” value (Antidote 1 2.24 + Herbicide 1 2.24 Kg/Ha) is reported as 15%. For the same molecule, the “Percent Injury Corn” value (Antidote 1 2.24 Kg/Ha alone) was 0%, the “% Injury Corn” value (Ex. 2: Antidote 1 0.14 + Herbicide 1 0.14 Kg/Ha) was 0% and the “% Injury Corn” value (Ex. 2: Antidote 1 0.42 + Herbicide 1 0.14 Kg/Ha) was 8%. For the same molecule, the “% Injury Corn” value (Ex. 2: Antidote 1 0.56 + Herbicide 1 0.56 Kg/Ha) was 3%, the “% Injury Corn” value (Ex. 2: Antidote 1 1.68 + Herbicide 1 0.56 Kg/Ha) was 5% and the injury to corn (Ex. 2: Herbicide No. 1 0.14 kg/ha + Insecticide 1 or 2, antidote applied at 3 X the herbicide rate) was “less than 10%”. The “% Injury Corn” value (Ex. 2: Insecticide 1 0.11 kg/305m + Antidote 1 0.14 + Herbicide 1 0.14 Kg/Ha) was 26%, the “% Injury Corn” value (Ex. 2: Insecticide 1 0.11 kg/305m + Antidote 1 0.42 + Herbicide 1 0.14 Kg/Ha) was 6% and the “% Injury Corn” value (Ex. 2: Insecticide 1 0.11 kg/305m + Antidote 1 0.56 + Herbicide 1 0.56 Kg/Ha) was 30%. The “% Injury Corn” value (Ex. 2: Insecticide 1 0.11 kg/305m + Antidote 1 1.68 + Herbicide 1 0.56 Kg/Ha) was 18%, the “% Injury Corn” value (Ex. 2: Insecticide 1 0.23 Kg/305m + Antidote 1 0.14 + Herbicide 1 0.14 Kg/Ha) was 18% and the “% Injury Corn” value (Ex. 2: Insecticide 1 0.23 Kg/305m + Antidote 1 0.22 + Herbicide 1 0.14 + Herbicide 2 4.48 Kg/Ha) was 20%. The “% Injury Corn” value (Ex. 2: Insecticide 1 0.23 Kg/305m + Antidote 1 0.42 + Herbicide 1 0.14 Kg/Ha) was 6%, the “% Injury Corn” value (Ex. 2: Insecticide 1 0.23 Kg/305m + Antidote 1 0.56 + Herbicide 1 0.56 Kg/Ha) was 33% and the “% Injury Corn” value (Ex. 2: Insecticide 1 0.23 Kg/305m + Antidote 1 1.68 + Herbicide 1 0.56 Kg/Ha) was 34%. The “% Injury Corn” value (Ex. 2: Insecticide 2 3.36 Kg/Ha + Antidote 1 0.22 + Herbicide 1 0.14 + Herbicide 2 4.48 Kg/Ha) was 29%, the “% Injury Corn” value (Ex. 2: Insecticide 2 3.36 Kg/Ha + Antidote 1 0.22 + Herbicide 2 4.48 Kg/Ha) was 19% and the “% Injury Corn” value (Ex. 3: Antidote 1 0.14 + Herbicide 1 0.14 Kg/Ha) was 3%. The “% Injury Corn” value (Ex. 3: Antidote 1 0.22 + Herbicide 2 4.48 Kg/Ha) was 13%, the “% Injury Corn” value (Ex. 3: Antidote 1 0.42 + Herbicide 1 0.14 Kg/Ha) was 3% and the “% Injury Corn” value (Ex. 3: Antidote 1 0.56 + Herbicide 1 0.56 Kg/Ha) was 8%. For the same molecule, the “% Injury Corn” value (Ex. 3: Antidote 1 1.68 + Herbicide 1 0.56 Kg/Ha) was 3%, the corn injury (Ex. 3: Herbicide No. 1 + Insecticide 3 or 4, Antidote No. 1 at 1:1 ratio, all cases) was “less than 5%” and the “% Injury Corn” value (Ex. 3: Insecticide 3 (227g) + Antidote 1 0.14 + Herbicide 1 0.14 Kg/Ha) was 0%. The “% Injury Corn” value (Ex. 3: Insecticide 3 (227 g) + Antidote 1 0.22 + Herbicide 1 0.14 + Herbicide 2 4.48 Kg/Ha) was 18%, the “% Injury Corn” value (Ex. 3: Insecticide 3 (227 g) + Antidote 1 0.22 + Herbicide 2 4.48 Kg/Ha) was 25% and the “% Injury Corn” value (Ex. 3: Insecticide 3 (227g) + Antidote 1 0.42 + Herbicide 1 0.14 Kg/Ha) was 20%. For the same molecule, the “% Injury Corn” value (Ex. 3: Insecticide 3 (227g) + Antidote 1 1.68 + Herbicide 1 0.56 Kg/Ha) was 8%, the “% Injury Corn” value (Ex. 3: Insecticide 4 (227g) + Antidote 1 0.14 + Herbicide 1 0.14 Kg/Ha) was 3% and the “% Injury Corn” value (Ex. 3: Insecticide 4 (227g) + Antidote 1 0.22 + Herbicide 1 0.14 + Herbicide 2 4.48 Kg/Ha) was 48%. For the same molecule, the “% Injury Corn” value (Ex. 3: Insecticide 4 (227g) + Antidote 1 0.22 + Herbicide 2 4.48 Kg/Ha) was 45%, the “% Injury Corn” value (Ex. 3: Insecticide 4 (227g) + Antidote 1 0.42 + Herbicide 1 0.14 Kg/Ha) was 5% and the “% Injury Corn” value (Ex. 3: Insecticide 4 (227g) + Antidote 1 0.56 + Herbicide 1 0.56 Kg/Ha) was 28%. The “% Injury Corn” value (Ex. 3: Insecticide 4 (227g) + Antidote 1 1.68 + Herbicide 1 0.56 Kg/Ha) was 5%, the “% Corn Injury PN 3320” value [1] was 15% and the “% Corn Injury PN 3377” value [1] was 15%. The “% Corn Injury PN 3320” value [2] was 10%, the “% Corn Injury PN 3377” value [2] was 0% and the “% Corn Injury PN 3320” value [3] was 68%. For the same molecule, the “% Corn Injury PN 3377” value [3] was 0%, the “% Corn Injury PN 3320” value [4] was 43% and the “% Corn Injury PN 3377” value [4] was 0%. For the same molecule, the “% Corn Injury PN 3320” value [5] was 40%, the “% Corn Injury PN 3377” value [5] was 18% and the “% Corn Injury PN 3320” value [6] was 25%. The “% Corn Injury PN 3377” value [6] was 3%, the “% Corn Injury PN 3320” value [7] was 40% and the “% Corn Injury PN 3377” value [7] was 35%. For the same molecule, the “% Corn Injury PN 3320” value [8] was 35%, the “% Corn Injury PN 3377” value [8] was 35% and the “% Corn Injury PN 3320” value [9] was 15%. The “% Corn Injury PN 3377” value [9] was 0%, the “% Corn Injury PN 3320” value [10] was 10% and the “% Corn Injury PN 3377” value [10] was 13%. The “% Corn Injury PN 3320” value [11] was 68%, the “% Corn Injury PN 3377” value [11] was 10% and the “% Corn Injury PN 3320” value [12] was 43%. For the same molecule, the “% Corn Injury PN 3377” value [12] was 28%, the “Percent Injury Corn” value (Insecticide 1 0.23 kg/305m + Antidote 1 0.14 + Herbicide 1 0.14 Kg/Ha) was 8% and the “Percent Injury Corn” value (Insecticide 1 0.23 kg/305m + Antidote 1 0.14 Kg/Ha, no herbicide) was 0%. The “Percent Injury Corn” value (Insecticide 1 0.23 kg/305m + Antidote 1 0.56 + Herbicide 1 0.56 Kg/Ha) was 25%, the “Percent Injury Corn” value (Insecticide 1 0.23 kg/305m + Antidote 1 0.56 Kg/Ha, no herbicide) was 0% and the “Percent Injury Corn” value (Insecticide 1 0.23 kg/305m + Antidote 1 2.24 + Herbicide 1 2.24 Kg/Ha) was 77%. The “Percent Injury Corn” value (Insecticide 1 0.23 kg/305m + Antidote 1 2.24 Kg/Ha, no herbicide) was 0%, the “Percent Injury Corn” value (Insecticide 1 (H2O) (crystals scattered in-furrow) + Antidote 1 2 + Herbicide 1 2 Kg/Ha) was 78% and the “Percent Injury Corn” value (Insecticide 1 (H2O) (crystals scattered in-furrow) + Antidote 1 2 Kg/Ha) was 13%. The “Percent Injury Corn” value (Insecticide 2 3.36 kg/ha + Antidote 1 0.14 + Herbicide 1 0.14 Kg/Ha) was 75%, the “Percent Injury Corn” value (Insecticide 2 3.36 kg/ha + Antidote 1 0.14 Kg/Ha, no herbicide) was 0% and the “Percent Injury Corn” value (Insecticide 2 3.36 kg/ha + Antidote 1 0.56 + Herbicide 1 0.56 Kg/Ha) was 70%. For the same molecule, the “Percent Injury Corn” value (Insecticide 2 3.36 kg/ha + Antidote 1 0.56 Kg/Ha, no herbicide) was 0%, the “Percent Injury Corn” value (Insecticide 2 3.36 kg/ha + Antidote 1 2.24 + Herbicide 1 2.24 Kg/Ha) was 92% and the “Percent Injury Corn” value (Insecticide 2 3.36 kg/ha + Antidote 1 2.24 Kg/Ha, no herbicide) was 0%. For the same molecule, the corn injury safened (sensitive genotype PN 3320) was 74% and the corn injury safened (tolerant genotype PN 3377) was 96%.
